The nature of data set [1]: Inhibition of human ABCB1 expressed in NCI-ADR-RES cells assessed as potentiation of colchicine-induced cytotoxicity by measuring colchicine IC50 at 1000 nM after 72 hrs by MTT assay (Rvb = 1607.50 +/- 497.42 nM).
The nature of data set [2]: Inhibition of human ABCB1 transfected in HEK293 cells assessed as potentiation of doxorubicin-induced cytotoxicity by measuring doxorubicin IC50 at 1000 nM after 72 hrs by CCK8 assay (Rvb = 504.65 +/- 44.94 nM). For orientation: Formazan colour is commonly taken as a measure of viable cells.
Data set [3] can be described thus: Inhibition of human ABCB1 expressed in NCI-ADR-RES cells assessed as potentiation of doxorubicin-induced cytotoxicity by measuring doxorubicin IC50 at 1000 nM after 72 hrs by MTT assay (Rvb = 5.54 +/- 0.60 uM).
Data set [4] in a line: Inhibition of human ABCB1 expressed in KBV1 cells assessed as potentiation of vincristine-induced cytotoxicity by measuring vincristine IC50 at 1000 nM after 72 hrs by MTT assay (Rvb = 277.68 +/- 56.61 nM).
Data set [5] can be described thus: Inhibition of human ABCB1 expressed in NCI-ADR-RES cells assessed as potentiation of vincristine-induced cytotoxicity by measuring vincristine IC50 at 1000 nM after 72 hrs by MTT assay (Rvb = 3714.80 +/- 383.58 nM).
Data set [6] can be described thus: Inhibition of human ABCB1 expressed in KBV1 cells assessed as potentiation of doxorubicin-induced cytotoxicity by measuring doxorubicin IC50 at 1000 nM after 72 hrs by MTT assay (Rvb = 5.07 +/- 0.19 uM).
Data set [7] is described as follows: Inhibition of human ABCB1 expressed in NCI-ADR-RES cells assessed as potentiation of vincristine-induced cytotoxicity by measuring vincristine IC50 at 50 nM after 72 hrs by MTT assay (Rvb = 3714.80 +/- 383.58 nM).
The nature of data set [8]: Inhibition of human ABCB1 expressed in KBV1 cells assessed as potentiation of colchicine-induced cytotoxicity by measuring colchicine IC50 at 200 nM after 72 hrs by MTT assay (Rvb = 487.57 +/- 30.54 nM).
Data set [9] can be described thus: Inhibition of human ABCB1 expressed in NCI-ADR-RES cells assessed as potentiation of doxorubicin-induced cytotoxicity by measuring doxorubicin IC50 at 100 nM after 72 hrs by MTT assay (Rvb = 5.54 +/- 0.60 uM).
A short description of data set [10]: Inhibition of human ABCB1 transfected in HEK293 cells assessed as potentiation of doxorubicin-induced cytotoxicity by measuring doxorubicin IC50 at 100 nM after 72 hrs by CCK8 assay (Rvb = 504.65 +/- 44.94 nM).
Data set [11] can be described thus: Inhibition of human ABCB1 expressed in NCI-ADR-RES cells assessed as potentiation of vincristine-induced cytotoxicity by measuring vincristine IC50 at 100 nM after 72 hrs by MTT assay (Rvb = 3714.80 +/- 383.58 nM).
Data set [12] in a line: Inhibition of human ABCB1 expressed in NCI-ADR-RES cells assessed as potentiation of vincristine-induced cytotoxicity by measuring vincristine IC50 at 200 nM after 72 hrs by MTT assay (Rvb = 3714.80 +/- 383.58 nM).
Data set [13] in a line: Inhibition of human ABCB1 expressed in NCI-ADR-RES cells assessed as potentiation of doxorubicin-induced cytotoxicity by measuring doxorubicin IC50 at 500 nM after 72 hrs by MTT assay (Rvb = 5.54 +/- 0.60 uM).
Data set [14] in a line: Inhibition of human ABCC1 transfected in HEK293 cells assessed as potentiation of etoposide-induced cytotoxicity by measuring etoposide IC50 at 500 nM after 72 hrs by CCK8 assay (Rvb = 38.54 +/- 5.62 nM).
Data set [15] is described as follows: Inhibition of human ABCB1 expressed in NCI-ADR-RES cells assessed as potentiation of colchicine-induced cytotoxicity by measuring colchicine IC50 at 500 nM after 72 hrs by MTT assay (Rvb = 1607.50 +/- 497.42 nM).
Data set [16] in a line: Inhibition of human ABCB1 expressed in KBV1 cells assessed as potentiation of doxorubicin-induced cytotoxicity by measuring doxorubicin IC50 at 500 nM after 72 hrs by MTT assay (Rvb = 5.07 +/- 0.19 uM).
The nature of data set [17]: Inhibition of human ABCB1 expressed in KBV1 cells assessed as potentiation of vincristine-induced cytotoxicity by measuring vincristine IC50 at 100 nM after 72 hrs by MTT assay (Rvb = 277.68 +/- 56.61 nM).
Data set [18] can be described thus: Inhibition of human ABCB1 transfected in HEK293 cells assessed as potentiation of doxorubicin-induced cytotoxicity by measuring doxorubicin IC50 at 200 nM after 72 hrs by CCK8 assay (Rvb = 504.65 +/- 44.94 nM).
A short description of data set [19]: Inhibition of human ABCB1 expressed in KBV1 cells assessed as potentiation of colchicine-induced cytotoxicity by measuring colchicine IC50 at 500 nM after 72 hrs by MTT assay (Rvb = 487.57 +/- 30.54 nM).
Data set [20] can be described thus: Inhibition of human ABCB1 expressed in KBV1 cells assessed as potentiation of colchicine-induced cytotoxicity by measuring colchicine IC50 at 100 nM after 72 hrs by MTT assay (Rvb = 487.57 +/- 30.54 nM).
A short description of data set [21]: Inhibition of human ABCB1 expressed in KBV1 cells assessed as potentiation of doxorubicin-induced cytotoxicity by measuring doxorubicin IC50 at 100 nM after 72 hrs by MTT assay (Rvb = 5.07 +/- 0.19 uM).
Data set [22] can be described thus: Inhibition of human ABCB1 expressed in KBV1 cells assessed as potentiation of vincristine-induced cytotoxicity by measuring vincristine IC50 at 50 nM after 72 hrs by MTT assay (Rvb = 277.68 +/- 56.61 nM).
A short description of data set [23]: Inhibition of human ABCB1 transfected in HEK293 cells assessed as potentiation of doxorubicin-induced cytotoxicity by measuring doxorubicin IC50 at 50 nM after 72 hrs by CCK8 assay (Rvb = 504.65 +/- 44.94 nM).
A short description of data set [24]: Inhibition of human ABCB1 expressed in KBV1 cells assessed as potentiation of doxorubicin-induced cytotoxicity by measuring doxorubicin IC50 at 50 nM after 72 hrs by MTT assay (Rvb = 5.07 +/- 0.19 uM).
A short description of data set [25]: Inhibition of human ABCB1 expressed in KBV1 cells assessed as potentiation of vincristine-induced cytotoxicity by measuring vincristine IC50 at 200 nM after 72 hrs by MTT assay (Rvb = 277.68 +/- 56.61 nM).
Data set [26] is described as follows: Inhibition of human ABCB1 expressed in NCI-ADR-RES cells assessed as potentiation of doxorubicin-induced cytotoxicity by measuring doxorubicin IC50 at 200 nM after 72 hrs by MTT assay (Rvb = 5.54 +/- 0.60 uM).
Data set [27] is described as follows: Inhibition of human ABCB1 expressed in NCI-ADR-RES cells assessed as potentiation of colchicine-induced cytotoxicity by measuring colchicine IC50 at 50 nM after 72 hrs by MTT assay (Rvb = 1607.50 +/- 497.42 nM).
A short description of data set [28]: Inhibition of human ABCB1 expressed in NCI-ADR-RES cells assessed as potentiation of vincristine-induced cytotoxicity by measuring vincristine IC50 at 500 nM after 72 hrs by MTT assay (Rvb = 3714.80 +/- 383.58 nM).
Data set [29] in a line: Inhibition of human ABCB1 expressed in NCI-ADR-RES cells assessed as potentiation of colchicine-induced cytotoxicity by measuring colchicine IC50 at 100 nM after 72 hrs by MTT assay (Rvb = 1607.50 +/- 497.42 nM).
The nature of data set [30]: Inhibition of human ABCB1 expressed in KBV1 cells assessed as potentiation of doxorubicin-induced cytotoxicity by measuring doxorubicin IC50 at 200 nM after 72 hrs by MTT assay (Rvb = 5.07 +/- 0.19 uM).
A short description of data set [31]: Inhibition of human ABCB1 expressed in NCI-ADR-RES cells assessed as potentiation of doxorubicin-induced cytotoxicity by measuring doxorubicin IC50 at 50 nM after 72 hrs by MTT assay (Rvb = 5.54 +/- 0.60 uM).
Data set [32] can be described thus: Inhibition of human ABCB1 expressed in NCI-ADR-RES cells assessed as potentiation of colchicine-induced cytotoxicity by measuring colchicine IC50 at 200 nM after 72 hrs by MTT assay (Rvb = 1607.50 +/- 497.42 nM).
Data set [33] in a line: Inhibition of human ABCB1 expressed in KBV1 cells assessed as potentiation of vincristine-induced cytotoxicity by measuring vincristine IC50 at 500 nM after 72 hrs by MTT assay (Rvb = 277.68 +/- 56.61 nM).

In the case of `COc1cc2c(cc1OC)CN(CCc1ccc(NC(=O)c3cc(OC)c(OC)cc3NC(=O)c3cnc4ccccc4c3)cc1)CC2`, the IC50 in data set [1] was 25 nM; in data set [2] it was 25 nM; in data set [3], 240 nM; in data set [4] it was 0.66 nM; in data set [5] it was 19 nM; in data set [6], 70 nM.
`COc1ccc2cc1Oc1ccc(cc1)C[C@H]1c3cc(c(OC)cc3CCN1C)Oc1c(OC)c(OC)c(OC)c3c1[C@H](C2)N(C)CC3` [CHEBI:5677]: the IC50 in [7] was found to be 3.22 µM; in data set [8] it was 118 nM; in data set [9], 1310 nM; in data set [10], 76 nM; in data set [11] it was 2660 nM; in [12], 970 nM. Also, the IC50 in data set [13] was determined as 230 nM; in data set [14] it was 38.3 µM; in [15] it was 79 nM; in data set [16] it was 100 nM; in data set [17] it was 100 nM; in data set [18], 44 nM. Also, the IC50 was found to be 32 nM in data set [19]; 188 nM in data set [20]; 700 nM in data set [21]; 205 nM in data set [22]; 109 nM in data set [23]; 1420 nM in data set [24]. For the same molecule, the IC50 in data set [25] turned out to be 21 nM; in data set [26], 550 nM; in data set [27], 1010 nM; in data set [28], 115 nM; in data set [29], 571 nM; in [30], 280 nM. The figures for the IC50 in data set [31], in data set [32] and in [33] were 2810 nM, 224 nM and 1.6 nM, respectively.

As usually defined, the IC50 is the concentration that inhibits the measured activity by half.

These data come from BindingDB's records for doi:10.1021/acs.jnatprod.6b00597 (Chang Gung Memorial Hospital, 2016).
